Experimental data as given in PMC12394658, “Discovery of Zharp1-163 as a dual inhibitor of ferroptosis and necroptosis for the treatment of inflammatory disorders and kidney injury” (Cell Death Discovery, 2025).

Assays:
Assay in all cases: biochemical
Design in all cases: Kinase selectivity panel of 81 human kinases, ADP-Glo or HTRF, per cent inhibition at 1 uM
IKKα = molecular target: T1, IKKα (Homo sapiens, UniProt O15111)
T1 construct: gene CHUK
Protocol: (§1) We next sought to determine the binding affinity of Zharp1-163 for RIPK1 or RIPK3 via a binding assay (Fig. 4A). […] Further, we evaluated the selectivity of Zharp1-163 against a panel of 81 kinases (at 1000 nM). […] To elucidate the binding interactions between Zharp1-163 and RIPK1 kinase, we conducted molecular docking studies using the RIPK1 crystal structure (PDB ID: 4NEU). The predicted binding conformations and interaction patterns between Zharp1-163 and the RIPK1 kinase domain are presented in Fig. 4D, E. Like the cocrystallized ligand in the 4NEU crystal complex, Zharp1-163 was predicted to act as a typical type II kinase inhibitor, interacting with the DLG (Asp156-Leu157-Gly158)-out conformation of RIPK1 (Fig. 4D, E). The 2-aminoimidazo [1,2-a] pyridine moiety of Zharp1-163 formed hydrogen bonds with Met95 in the hinge region. Furthermore, the carboxylate group of Zharp1-163 established hydrogen bonds with Asp156 in the DLG-out region. Additionally, the saturated ring of Zharp1-163 was deeply embedded within the hydrophobic allosteric pocket formed by the residues Met66, Met67, Leu70, Val76, Leu129, and Leu159, which is created by the DLG-out conformation in RIPK1 (Fig. 4D, E).  Fig. 4 Zharp1-163 is a selective inhibitor of RIPK1 kinase activity. A Binding affinity curve of Zharp1-163 with RIPK1 and RIPK3. B In an in vitro kinase activity assay, recombinant RIPK1 was incubated with Zharp1-163, after which RIPK1 kinase activity was determined by measuring ATP levels via a luciferase reporter assay system. […] Kinases are marked with dots, where the color of each kinase indicates the level of inhibition achieved by Zharp1-163. D Predicted binding conformation of Zharp1-163. E Schematic representation of the interaction patterns between Zharp1-163 and the key residues in the binding pocket of the RIPK1 kinase. […] NIH3T3-RIPK3 cells were pretreated with the indicated concentrations of Zharp1-163 for 2 h and then treated with AP20187 (100 nM) for 24 h. Cell viability was determined by measuring ATP levels. […] HeLa-MLKL (1–190) cells were pretreated with the indicated concentrations of Zharp1-163 for 2 h and subsequently treated with AP20187 (100 nM) for 24 h. Cell viability was determined by measuring ATP levels. H Viability of IFNβ-primed MEFs at 18 h after stimulation with poly(I:C) plus z-VAD and treatment with Zharp1-163 (10 μM). I Effects of different concentrations of Zharp1-163 on WT or RIPK1 KO HT-29 cells. Cell viability was determined by measuring ATP levels. The data are presented as the mean ± SD of triplicate samples.

TGFβR1 = molecular target: T2, TGFβR1 (Homo sapiens, UniProt P36897)
T2 construct: gene TGFBR1
Protocol: as §1

PKD2 = molecular target: T3, PKD2 (Homo sapiens, UniProt Q9BZL6)
T3 construct: gene PRKD2
T3 sequence (Q9BZL6 whole entry): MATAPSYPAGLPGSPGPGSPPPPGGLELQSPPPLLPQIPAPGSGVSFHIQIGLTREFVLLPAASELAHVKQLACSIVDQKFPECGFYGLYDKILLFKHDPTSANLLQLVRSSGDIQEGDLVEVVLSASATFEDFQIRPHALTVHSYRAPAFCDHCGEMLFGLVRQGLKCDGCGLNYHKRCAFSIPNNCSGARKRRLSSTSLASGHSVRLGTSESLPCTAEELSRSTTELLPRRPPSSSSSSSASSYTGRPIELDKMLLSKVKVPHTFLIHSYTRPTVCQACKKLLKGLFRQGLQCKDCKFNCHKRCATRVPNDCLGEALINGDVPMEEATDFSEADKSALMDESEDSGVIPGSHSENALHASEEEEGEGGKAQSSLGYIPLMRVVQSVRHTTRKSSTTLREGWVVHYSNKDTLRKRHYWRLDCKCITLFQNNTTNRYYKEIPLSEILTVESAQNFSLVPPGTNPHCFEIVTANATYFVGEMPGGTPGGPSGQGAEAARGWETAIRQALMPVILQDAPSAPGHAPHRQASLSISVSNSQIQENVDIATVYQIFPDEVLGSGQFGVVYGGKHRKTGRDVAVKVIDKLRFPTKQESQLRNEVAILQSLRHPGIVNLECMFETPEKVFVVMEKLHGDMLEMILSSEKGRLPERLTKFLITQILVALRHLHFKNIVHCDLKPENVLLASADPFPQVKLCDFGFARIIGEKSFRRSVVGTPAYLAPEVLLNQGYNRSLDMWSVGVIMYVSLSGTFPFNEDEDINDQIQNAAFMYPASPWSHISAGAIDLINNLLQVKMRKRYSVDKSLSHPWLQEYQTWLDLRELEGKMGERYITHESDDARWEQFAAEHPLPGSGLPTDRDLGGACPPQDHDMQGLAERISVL
Protocol: as §1

BMX = BMX (Homo sapiens, UniProt P51813)
Protocol: as §1

PIM1 = PIM1 (Homo sapiens, UniProt P11309)
Protocol: as §1

HIPK1 = HIPK1 (Homo sapiens, UniProt Q86Z02)
Chain of HIPK1 (Q86Z02 whole entry): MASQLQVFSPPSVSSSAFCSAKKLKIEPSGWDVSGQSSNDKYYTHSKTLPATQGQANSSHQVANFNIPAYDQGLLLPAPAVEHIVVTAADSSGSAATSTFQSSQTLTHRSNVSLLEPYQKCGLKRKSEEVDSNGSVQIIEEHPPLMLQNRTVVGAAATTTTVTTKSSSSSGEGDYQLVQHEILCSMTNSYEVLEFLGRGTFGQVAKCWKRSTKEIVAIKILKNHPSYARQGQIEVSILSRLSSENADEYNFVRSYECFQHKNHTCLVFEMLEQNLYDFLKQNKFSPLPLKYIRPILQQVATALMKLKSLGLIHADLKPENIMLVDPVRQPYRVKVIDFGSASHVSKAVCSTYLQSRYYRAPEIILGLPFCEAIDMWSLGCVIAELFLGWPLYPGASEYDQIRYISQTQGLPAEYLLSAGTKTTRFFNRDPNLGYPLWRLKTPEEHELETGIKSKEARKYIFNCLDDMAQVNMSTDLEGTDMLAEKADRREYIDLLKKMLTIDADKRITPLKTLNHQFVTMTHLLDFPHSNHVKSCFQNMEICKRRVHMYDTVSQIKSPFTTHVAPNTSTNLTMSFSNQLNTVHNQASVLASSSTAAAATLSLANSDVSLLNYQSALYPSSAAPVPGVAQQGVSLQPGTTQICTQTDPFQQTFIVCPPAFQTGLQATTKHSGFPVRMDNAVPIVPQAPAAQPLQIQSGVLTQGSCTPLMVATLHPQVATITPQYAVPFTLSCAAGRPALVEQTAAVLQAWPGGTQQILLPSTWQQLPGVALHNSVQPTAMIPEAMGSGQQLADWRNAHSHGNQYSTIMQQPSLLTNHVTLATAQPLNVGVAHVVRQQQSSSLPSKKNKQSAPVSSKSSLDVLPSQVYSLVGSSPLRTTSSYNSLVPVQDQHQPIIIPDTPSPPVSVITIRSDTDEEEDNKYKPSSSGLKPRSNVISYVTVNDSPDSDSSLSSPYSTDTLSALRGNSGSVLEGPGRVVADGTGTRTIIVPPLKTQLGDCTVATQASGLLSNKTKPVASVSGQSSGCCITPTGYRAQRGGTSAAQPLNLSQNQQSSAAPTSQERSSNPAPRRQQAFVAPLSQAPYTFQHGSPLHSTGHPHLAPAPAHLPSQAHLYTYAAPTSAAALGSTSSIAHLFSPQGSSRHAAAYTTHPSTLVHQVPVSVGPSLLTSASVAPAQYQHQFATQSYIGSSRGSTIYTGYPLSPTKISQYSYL
Protocol: as §1

PAK2 = PAK2 (Homo sapiens, UniProt Q13177)
Chain of PAK2 (Q13177 whole entry): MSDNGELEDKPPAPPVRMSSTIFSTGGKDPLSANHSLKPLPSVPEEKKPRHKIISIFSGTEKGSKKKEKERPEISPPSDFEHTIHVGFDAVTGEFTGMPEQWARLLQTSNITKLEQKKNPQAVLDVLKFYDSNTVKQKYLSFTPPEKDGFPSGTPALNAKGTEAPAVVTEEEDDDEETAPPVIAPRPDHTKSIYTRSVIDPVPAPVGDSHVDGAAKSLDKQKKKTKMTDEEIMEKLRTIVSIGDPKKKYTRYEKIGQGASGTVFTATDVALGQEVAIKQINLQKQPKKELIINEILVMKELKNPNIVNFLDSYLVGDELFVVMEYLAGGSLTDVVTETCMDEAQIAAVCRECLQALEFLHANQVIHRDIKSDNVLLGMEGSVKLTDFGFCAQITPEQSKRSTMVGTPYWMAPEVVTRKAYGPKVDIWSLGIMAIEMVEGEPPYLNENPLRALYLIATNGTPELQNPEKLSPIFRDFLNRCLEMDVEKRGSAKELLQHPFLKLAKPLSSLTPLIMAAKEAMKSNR
Protocol: as §1

MARK1 = MARK1 (Homo sapiens, UniProt Q9P0L2)
Protocol: as §1

CLK1 = CLK1 (Homo sapiens, UniProt P49759)
Protocol: as §1

Erk7 = molecular target: T4, Erk7 (Homo sapiens, UniProt Q8TD08)
T4 construct: gene MAPK15
T4 sequence (Q8TD08 whole entry): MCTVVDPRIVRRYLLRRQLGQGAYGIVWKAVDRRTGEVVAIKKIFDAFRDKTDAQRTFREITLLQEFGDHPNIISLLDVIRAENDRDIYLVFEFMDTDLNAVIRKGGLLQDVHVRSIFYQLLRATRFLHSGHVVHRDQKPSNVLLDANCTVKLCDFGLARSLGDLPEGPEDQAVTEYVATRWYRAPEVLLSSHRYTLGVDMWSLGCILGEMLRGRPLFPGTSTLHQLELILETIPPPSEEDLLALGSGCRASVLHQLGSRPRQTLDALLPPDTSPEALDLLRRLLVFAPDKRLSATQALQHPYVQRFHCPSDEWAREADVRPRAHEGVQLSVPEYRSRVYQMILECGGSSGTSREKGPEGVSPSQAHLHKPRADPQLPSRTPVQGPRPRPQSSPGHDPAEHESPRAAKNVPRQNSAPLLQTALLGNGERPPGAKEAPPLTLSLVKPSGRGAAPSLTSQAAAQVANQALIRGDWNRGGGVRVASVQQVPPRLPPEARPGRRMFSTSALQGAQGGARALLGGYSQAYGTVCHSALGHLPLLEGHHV
Protocol: as §1

EPHA2 = EPHA2 (Homo sapiens, UniProt P29317)
Protocol: as §1

MRCKβ = molecular target: T5, MRCKβ (Homo sapiens, UniProt Q9Y5S2)
T5 construct: gene CDC42BPB
T5 sequence (Q9Y5S2 whole entry): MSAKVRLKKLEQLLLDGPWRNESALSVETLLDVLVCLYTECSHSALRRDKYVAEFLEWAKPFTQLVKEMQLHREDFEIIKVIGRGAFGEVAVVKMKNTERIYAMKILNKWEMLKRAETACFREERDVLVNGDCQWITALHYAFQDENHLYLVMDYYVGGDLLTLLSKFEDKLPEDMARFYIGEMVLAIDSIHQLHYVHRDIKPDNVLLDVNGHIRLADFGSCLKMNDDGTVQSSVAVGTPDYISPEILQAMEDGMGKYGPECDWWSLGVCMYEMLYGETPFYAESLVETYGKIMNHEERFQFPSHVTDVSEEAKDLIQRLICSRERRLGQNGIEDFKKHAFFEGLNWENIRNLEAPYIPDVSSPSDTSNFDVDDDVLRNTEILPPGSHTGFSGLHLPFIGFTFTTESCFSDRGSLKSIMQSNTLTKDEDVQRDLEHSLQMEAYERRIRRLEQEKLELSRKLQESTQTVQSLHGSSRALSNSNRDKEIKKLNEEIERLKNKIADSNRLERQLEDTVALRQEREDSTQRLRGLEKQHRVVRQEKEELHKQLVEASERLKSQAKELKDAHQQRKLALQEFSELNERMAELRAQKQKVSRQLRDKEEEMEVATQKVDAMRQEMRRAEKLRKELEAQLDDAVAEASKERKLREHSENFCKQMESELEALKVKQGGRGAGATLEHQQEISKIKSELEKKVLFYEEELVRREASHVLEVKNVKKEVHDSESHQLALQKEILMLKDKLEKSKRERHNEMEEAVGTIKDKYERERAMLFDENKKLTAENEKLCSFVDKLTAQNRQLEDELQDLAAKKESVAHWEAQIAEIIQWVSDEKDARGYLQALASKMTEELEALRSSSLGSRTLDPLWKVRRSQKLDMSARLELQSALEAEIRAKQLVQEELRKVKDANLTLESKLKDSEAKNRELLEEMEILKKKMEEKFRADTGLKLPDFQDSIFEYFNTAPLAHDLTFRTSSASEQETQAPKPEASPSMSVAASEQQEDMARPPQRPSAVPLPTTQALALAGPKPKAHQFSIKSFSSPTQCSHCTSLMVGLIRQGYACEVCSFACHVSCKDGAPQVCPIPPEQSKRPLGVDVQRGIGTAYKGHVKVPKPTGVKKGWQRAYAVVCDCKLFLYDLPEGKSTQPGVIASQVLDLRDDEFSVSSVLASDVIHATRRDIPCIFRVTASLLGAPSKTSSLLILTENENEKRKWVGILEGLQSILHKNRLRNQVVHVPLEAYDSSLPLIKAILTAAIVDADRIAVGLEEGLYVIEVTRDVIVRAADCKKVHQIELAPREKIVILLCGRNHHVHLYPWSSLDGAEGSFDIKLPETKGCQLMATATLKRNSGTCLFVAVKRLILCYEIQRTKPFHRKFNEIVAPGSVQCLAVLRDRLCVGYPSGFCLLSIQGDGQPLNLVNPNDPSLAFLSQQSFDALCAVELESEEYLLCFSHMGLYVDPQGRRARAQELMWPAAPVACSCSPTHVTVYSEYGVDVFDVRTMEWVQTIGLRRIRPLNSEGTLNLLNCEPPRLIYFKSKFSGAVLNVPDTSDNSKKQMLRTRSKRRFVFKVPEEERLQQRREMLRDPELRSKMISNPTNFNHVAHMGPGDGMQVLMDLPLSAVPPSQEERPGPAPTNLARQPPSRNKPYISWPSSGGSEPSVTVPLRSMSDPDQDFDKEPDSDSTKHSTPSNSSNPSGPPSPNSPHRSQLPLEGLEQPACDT
Protocol: as §1

MAP3K19 = MAP3K19 (Homo sapiens, UniProt Q56UN5)
Protocol: as §1

PLK1 = PLK1 (Homo sapiens, UniProt P53350)
Protocol: as §1

inhibition at 1 µM (IKKα; replicate Data1): 0.19%
inhibition at 1 µM (IKKα; replicate Data2): 7.24%
inhibition at 1 µM (TGFβR1; replicate Data1): 7.16%
inhibition at 1 µM (TGFβR1; replicate Data2): 7.76%
inhibition at 1 µM (PKD2; replicate Data1): 12%
inhibition at 1 µM (PKD2; replicate Data2): 6.79%
inhibition at 1 µM (BMX; replicate Data1): -3.03%
inhibition at 1 µM (BMX; replicate Data2): 11.3%
inhibition at 1 µM (PIM1; replicate Data1): 3.88%
inhibition at 1 µM (PIM1; replicate Data2): 7.34%
inhibition at 1 µM (HIPK1; replicate Data1): 8.39%
inhibition at 1 µM (HIPK1; replicate Data2): -1.36%
inhibition at 1 µM (PAK2; replicate Data1): -3.2%
inhibition at 1 µM (PAK2; replicate Data2): -2.35%
inhibition at 1 µM (MARK1; replicate Data1): -11.5%
inhibition at 1 µM (MARK1; replicate Data2): 4.11%
inhibition at 1 µM (CLK1; replicate Data1): 38.1%
inhibition at 1 µM (CLK1; replicate Data2): 33.2%
inhibition at 1 µM (EPHA2; replicate Data1): -8.55%
inhibition at 1 µM (EPHA2; replicate Data2): -9.14%
inhibition at 1 µM (MRCKβ; replicate Data1): -0.71%
inhibition at 1 µM (MRCKβ; replicate Data2): 4.66%
inhibition at 1 µM (MAP3K19; replicate Data1): -4.19%
inhibition at 1 µM (MAP3K19; replicate Data2): 10.2%
inhibition at 1 µM (PLK1; replicate Data1): -5.06%
inhibition at 1 µM (PLK1; replicate Data2): -18%
Structure (SMILES): Nc1cn2cc(-c3cnc4c(c3)N(C(=O)OC3CCCCC3)CCO4)ccc2n1 [Zharp1-163]
inhibition at 1 µM (Erk7; replicate Data1): 5.82%
inhibition at 1 µM (Erk7; replicate Data2): 0.29%
